{"source": "paper PMC7617869", "about": "“Molecular glues that inhibit deubiquitylase activity and inflammatory signaling” (Nature Structural & Molecular Biology, 2025)", "biological_target": "T1, BRISC (Homo sapiens, UniProt P46736+Q15018+Q9NXR7)", "T1 construct": "made in house; host or cells: Spodoptera frugiperda (Sf9) insect cells, MultiBac", "experiment": "Compound library screening and hit validation (IQF diubiquitin, 1 nM BRISC)", "type": "biochemical", "conditions": "for BRISC, normalised activity (Ext. 1a): two replicate columns", "experimental": "Assays were performed in 384-well black flat-bottom low-flange plates (Corning, 35373) in buffer containing 50 mM HEPES–NaOH pH 7.0, 100 mM NaCl, 1 mg ml^−1 BSA, 1 mM DTT and 0.03% v/v Brij-35. Then, 10 μl of twofold concentrated enzyme stock was dispensed, followed by transfer of 200 nl of compounds (1 mM stock) using a 384-pin tool and a 15-min incubation at room temperature. Then, 10 μl of twofold concentrated substrate stock was added and the reaction was monitored by measuring fluorescence intensity (excitation, 540 nm; emission, 580 nm) after 20-min incubation at room temperature and ~50% of substrate was consumed. Orthogonal assays for verification of H20 and P12 hit compounds using USP2 (100 nM) and trypsin (125 nM) were performed in identical conditions.", "note": "Several values for one entry are separate records, joined by “and”; a condition that tells them apart may be missing. Identical values can stand only once.", "data": [{"smiles": "O=C(NC1CCNCC1)c1nn(C(=O)c2c(Cl)cccc2Cl)cc1NC(=O)c1c(Cl)cccc1Cl", "note": "[JMS-175-2]", "values": [{"measurement": "inhibition of BRISC, hit validation dose response", "setting": "BRISC 1 nM", "value": "selective inhibition"}, {"measurement": "BRISC, normalised activity (Ext. 1a)", "setting": "log [compound (μM)] 0.1938, listed as H20", "value": "0.7394 and 0.8570"}, {"measurement": "BRISC, normalised activity (Ext. 1a)", "setting": "log [compound (μM)] 0.4949, listed as H20", "value": "0.6725 and 0.7111"}, {"measurement": "BRISC, normalised activity (Ext. 1a)", "setting": "log [compound (μM)] 0.7959, listed as H20", "value": "0.4328 and 0.4373"}, {"measurement": "BRISC, normalised activity (Ext. 1a)", "setting": "log [compound (μM)] 1.0969, listed as H20", "value": "0.3601 and 0.3685"}, {"measurement": "BRISC, normalised activity (Ext. 1a)", "setting": "log [compound (μM)] 1.3979, listed as H20", "value": "0.2929 and 0.2927"}, {"measurement": "BRISC, normalised activity (Ext. 1a)", "setting": "log [compound (μM)] 1.6990, listed as H20", "value": "0.2472 and 0.2252"}, {"measurement": "BRISC, normalised activity (Ext. 1a)", "setting": "log [compound (μM)] 2.0000, listed as H20", "value": "0.2296 and 0.2103"}, {"measurement": "BRISC, normalised activity (Ext. 1a)", "setting": "log [compound (μM)] 2.3010, listed as H20", "value": "0.2316 and 0.1815"}, {"measurement": "BRISC, normalised activity (Ext. 1a)", "setting": "log [compound (μM)] -0.1072, listed as H20", "value": "0.9797 and 1.0152"}, {"measurement": "BRISC, normalised activity (Ext. 1a)", "setting": "log [compound (μM)] -0.4082, listed as H20", "value": "1.0306 and 1.0024"}, {"measurement": "BRISC, normalised activity (Ext. 1a)", "setting": "log [compound (μM)] -0.7093, listed as H20", "value": "1.0136 and 1.0571"}, {"measurement": "BRISC, normalised activity (Ext. 1a)", "setting": "log [compound (μM)] -1.7100, normalisation point", "value": 1.0000}, {"measurement": "normalised V0, Mean", "setting": "log[compound (μM)] 0.1931", "value": 0.7989}, {"measurement": "normalised V0, Mean", "setting": "log[compound (μM)] 0.4942", "value": 0.6361}, {"measurement": "normalised V0, Mean", "setting": "log[compound (μM)] 0.7959", "value": 0.4437}, {"measurement": "normalised V0, Mean", "setting": "log[compound (μM)] 1.0969", "value": 0.3773}, {"measurement": "normalised V0, Mean", "setting": "log[compound (μM)] 1.3979", "value": 0.3064}, {"measurement": "normalised V0, Mean", "setting": "log[compound (μM)] 1.6990", "value": 0.2332}, {"measurement": "normalised V0, Mean", "setting": "log[compound (μM)] 2.0000", "value": 0.2301}, {"measurement": "normalised V0, Mean", "setting": "log[compound (μM)] 2.3010", "value": 0.1610}, {"measurement": "normalised V0, Mean", "setting": "log[compound (μM)] -0.1079", "value": 0.9141}, {"measurement": "normalised V0, Mean", "setting": "log[compound (μM)] -0.4089", "value": 0.9318}, {"measurement": "normalised V0, Mean", "setting": "log[compound (μM)] -0.7212", "value": 0.9518}, {"measurement": "normalised V0, Mean", "setting": "log[compound (μM)] -1.7212, normalisation point", "value": 1.0000}]}]}
